Results from patent publication US7709514B2, “Therapeutic molecules and methods-1” (Cortical Pty Ltd, priority 2002, dated 2010).
Read-outs that look alike come from different tables or passages of the source.

How the values were obtained:
[1] = system: murine peritoneal macrophage cytokine production; assay: inhibition of peritoneal macrophage cytokine production (ELISA); assay type: cell-based, mice; details: Mus musculus
Procedure: C57BL6/J male mice were injected intraperitoneally with 2 ml of thioglycollate. Five (5) days later peritoneal macrophages were collected by lavaging the peritoneum of anaesthetized mice with 3 ml of cold Hanks buffered saline solution. Cells from several mice were pooled, washed and re-suspended in DMEM supplemented with 5% FCS. Cells were plated in 96 well plastic tissue culture plates at 1×10^5 cells/well. Cells were treated with compound or vehicle for 1 hour in a 5% CO2 incubator at 37° C. Cells were then treated with LPS (10-100 ng/ml) or recombinant human interferon-γ (10 units/ml) and incubated for 24 hours. After 24 hours, 50 μl of supernatant from each well was carefully removed and transferred to ELISA plates. The concentration of interleukin 1 (IL-1) or interleukin 6 (IL-6) was measured by ELISA. The concentration of compound at which LPS- or interferon-γ-induced cytokine release was suppressed by 50% compared to vehicle-only-treated cells (EC50) was calculated using Prism® software. Table 9 lists the EC50 for two compounds tested in this assay.

[2] = system: murine peritoneal macrophage nitric oxide production; assay: inhibition of peritoneal macrophage nitric oxide release (Greiss assay); assay type: cell-based, mice; details: Mus musculus, LPS 10 ng/ml and interferon-γ 10 units/ml, 24 hours, read-out: % Nitrite concentration inhibition from control
Procedure: C57BL6/J male mice were injected intraperitoneally with 2 ml of thioglycollate. Five (5) days later peritoneal macrophages were collected by lavaging the peritoneum of anaesthetized mice with 3 ml of cold Hanks buffered saline solution. Cells from several mice were pooled, washed and re-suspended in DMEM supplemented with 5% FCS. Cells were plated in 96 well plastic tissue culture plates at 1×10^5 cells/well. Cells were treated with compound or vehicle for 1 hour in a 5% CO2 incubator at 37° C. Cells were then treated with LPS (10 ng/ml) and recombinant human interferon-γ (10 units/ml) and incubated for 24 hours. After 24 hours, 50 μl of supernatant from each well was carefully removed and transferred to ELISA plates. The concentration of nitrite in culture supernatants was measured by the Greiss assay (27). The results were defined as the percentage inhibition of nitrite concentration in compound-treated cell culture supernatants compared to that of vehicle-treated cells.

[3] = system: lymph node and splenic T cells; assay: ex vivo antigen-specific T cell activation after in vivo treatment; design: species or system mice
Description: In vivo administration of such a compound might be expected to exert effects on T cell responsiveness even after the T cells have been removed from exposure to the compound, that is, if T cells were studied ex vivo after in vivo treatment with the MIF antagonist compound. To measure ex vivo antigen-specific T cell activation, draining lymph nodes from arthritic limbs or spleens were removed from mice with murine antigen induced arthritis, induced as above with mBSA, at day 28 after first immunisation and a single cell suspension prepared in DMEM containing 5% FCS and 0.05% 2-mercaptoethanol. 1×10^5 cells/200 μl were cultured in triplicate in the presence or absence of mBSA (0.1, 1.0, 10 μg/ml) in 96-well plates for 48 hours (37° C., 5% CO2.) The T cell proliferation response was determined by measuring ^3H-thymidine incorporation during the final 18 hr. The cells were harvested and radioactivity incorporation into the DNA was measured with a Wallac 1409 liquid scintillation counter. The means of each triplicate culture were calculated. Each experiment comprised at least three individual animals and the results presented represent the mean±SEM of groups of animals in each experiment. The percentage inhibition of T cell proliferation was calculated using the result of the […] incorporation of cells from compound-treated animals subtracted from the ^3H-thymidine incorporation of cells from vehicle-treated animals.

[4] = system: IL-1-induced proliferation of human rheumatoid arthritis FLS; assay: inhibition of human rheumatoid arthritis synovial fibroblast proliferation; assay type: cell-based
Procedure: Fibroblast-like synoviocytes (FLS) were obtained from synovium of rheumatoid (RA) patients undergoing joint replacement surgery and prepared according to Lacey et al (26). FLS were isolated using enzyme digestion and cultured in RPMI/10% fetal calf serum (FCS) as previously described. A single cell suspension was obtained by digesting minced synovial tissue with 2.4 mg/ml Dispase (grade II, 5 U/mg) 1 mg/ml collagenase (type II) and DNase (type 1). FLS were propagated in 10 cm culture plates in RPMI supplemented with 10% FCS at 37° C. in a 5% CO2 humidified incubator. Cells beyond 3rd passage were more than 99% CD45−. Cells were used between passages 4 and 9. Cells from four individual human RA donor FLS used.
To determine the effect of compound 5 on FLS proliferation, DNA synthesis was measured by [^3H] thymidine incorporation. FLS were seeded overnight at 0.5×10^5 cells per well in 24 well tissue culture plates in RPMI/10% FCS. Cell growth was synchronised by culturing FLS in RPMI/0.1% bovine serum albumin for 24 h. […] FLS were detached using Trypsin-EDTA, harvested using a cell harvester, and the radioactivity incorporated into DNA determined using a Wallac 1409 liquid scintillation counter. Results were expressed as the percentage of control (untreated) cell proliferation, and the mean±SEM of four experiments calculated.

[5] = system: IL-1 induced phosphorylation of ERK; assay: IL-1 induced phosphorylation (activation) of ERK, Western blotting; assay type: cell-based, human; details: compound 5 50 μM alone; S112 cells, IL-1 0.1 ng/ml, 30 minutes
Procedure: S112 human dermal fibroblasts cultured in RPMI (serum-free) medium were stimulated with recombinant human IL-1 0.1 ng/ml, as described herein, for 30 minutes, with or without the addition of dexamethasone 10^−9M or benzimidazol-2-one-5-pentanoate (compound 5) (50 μM). The phosphorylation (activation) of ERK was assessed using Western blotting with a mAb specific for the phosphorylated (activated) form of ERK. In brief, cells were disrupted by repeated aspiration through a 21-gauge needle. After incubation on ice for 10 min and microcentrifugation at 3000 rpm for 15 min (4° C.), the supernatants were removed, the protein concentration was determined, and the lysates were stored at −80° C. Equal amounts of cellular proteins were fractionated on 10% SDS-polyacrylamide electrophoresis gels and transferred to polyvinylidene difluoride membranes. Immunoblotting was performed using antibodies directed against phospho-p44/42 (ERK) and total p44142 according to the manufacturer's instructions. The intensity of ERK activation is proportional to the size and optical density (darkness) of the resulting blots. Total ERK blots serve as a loading control, such that changes in phosphorylated ERK represent changes in phosphorylation and not in total ERK protein.

Question: With `CCCCCOC(=O)c1ccc2[nH]c(=O)[nH]c2c1` [Compound 5] as the compound, how does the EC50 ([1]; [LPS] 10 ng/mL, read-out: EC50, IL-1 release) read?
Answer: 0.075 µM

Question: And the EC50 ([1]; [LPS] 100 ng/mL, read-out: EC50, IL-6 release)?
Answer: 17.7 µM

Question: What about the inhibition at 25 µM ([2]; compound 25 μM) of the same compound?
Answer: 11.1%

Question: And the inhibition at 50 µM ([2]; compound 50 μM)?
Answer: 19.7%

Question: What about the inhibition at 100 µM ([2]; compound 100 μM) of the same compound?
Answer: 28.6%

Question: And the “ex vivo activation of lymph node T cells in response to mBSA” value ([3]; FIG. 11a, vs vehicle)?
Answer: reduced proliferative responses

Question: What about the “ex vivo splenic T cell proliferation in response to mBSA” value ([3]; FIG. 11b, table 7, vs vehicle) of the same compound?
Answer: inhibitory effect

Question: And the “% inhibition of ex vivo splenic T cell activation” value ([3]; [mBSA] 1 μg/mL)?
Answer: 33%

Question: What about the “% inhibition of ex vivo splenic T cell activation” value ([3]; [mBSA] 10 μg/mL) of the same compound?
Answer: 30%

Question: And the “FLS proliferation, percentage of control (untreated) cell proliferation” value ([4]; IL-1β 0.1 ng/ml + compound 5 50 μM, mean±SEM of four experiments, IL-1 + vehicle 156 ± 32)?
Answer: 18 ± 6 percentage of control

Question: What about the “IL-1-induced FLS proliferation” value ([4]; compound 5 50 μM) of the same compound?
Answer: marked and statistically significant inhibition

Question: And the “ERK activation by IL-1” value [5]?
Answer: not inhibited
